# Data taken from US7629371B2, “Cosmetic use of a composition containing at least one oxazoline, serving as an active substance, as a slimming product and/or for preventing and/or treating cellulite” (Laboratoires Expanscience, priority 2003, dated 2009).
# Legend:
# normal human adipocytes [1] = test: Evaluation of lipid synthesis in adipocytes in suspension (Example 6): incorporation of radiolabelled acetate into lipids; assay type: cell-based; settings: for decrease of the incorporation of acetate, % of the control: FIG. 1
# Description: A solution of OX100, diluted to a concentration of 10^−2 M in DMSO, was tested.
# Normal human adipocytes were isolated from abdominal biopsies (plastic surgery). Immediately after they have been received, the samples are incubated for 30 minutes at 37° C. in the presence of collagenase (supplied by the company Sigma). The adipocyte suspension is subsequently rinsed and diluted three times in the culture medium. The culture medium consists of: • 1.87 mg/ml bicarbonate (supplied by the company Life Technologies), • 25 IU/ml/25 μg/ml of penicillin/streptomycin (supplied by the company Life Technologies), • 2 mM of glutamine (supplied by the company Life Technologies), • 100% v/v of MEM (supplied by the company Merck Eurolab), and • 0.5% w/v of albumin of bovine origin (supplied by the company Sigma). Evaluation of Lipid Synthesis
# The adipocytes in suspension are incubated for 1 hour at 37° C. in the presence of various concentrations of OX100. The OX100 concentrations tested are 20 μM, 4 μM and 0.8 μM.
# A volume of 10 ml of radiolabelled acetate (2-C^14, 60.87 μCi/ml, supplied by the company Amersham) is subsequently added to the preparation.
# After incubation for 4 hours, the lipids are extracted according to the procedure described by Bligh and Dyer, Can J Biochem Physiol, 37, 922, (1959), (methanol/chloroform/water), and evaporated under nitrogen, and the radioactivity incorporated is quantified by liquid scintillation (liquid scintillation device reference LKB 1210, supplied by the company Rackbeta).
# The possible interaction between the radiolabelled acetate and the OX100 was evaluated in order to confirm the specificity of labeling, by incubating the highest concentration of OX100 (20 μM) with acetate alone.
# normal human adipocytes [2] = test: Evaluation of lipid synthesis in adipocytes in suspension (Example 7): incorporation of radiolabelled acetate into lipids; assay type: cell-based; settings: for decrease of the incorporation of acetate into lipids, % of the control: FIG. 2
# Description: A solution of OX100 (10^−2 M in DMSO) was tested.
# Culture Conditions: They are identical to those of example 6.
# The adipocytes in suspension are incubated for 1 h at 37° C. in the presence of various concentrations of OX100 (10, 20 and 100 μMO). A volume of 10 ml of radiolabelled acetate (2-C^14, 60.87 μCi/ml, Amersham) is subsequently added to the preparation. After incubation for 4 h, the lipids are extracted according to the procedure described by Bligh and Dyer (methanol/chloroform/water), and evaporated under nitrogen, and the radioactivity incorporated is quantified by liquid scintillation (Rackbeta LKB 1210).
# [3] = tested at 10 μM, 1 h preincubation, 4 h with 2-C14 acetate
SMILES,inhibition of lipogenesis in human adipocytes (in words) (normal human adipocytes [1]),"decrease of the incorporation of acetate, % of the control (normal human adipocytes [1]; OX100 at 4 μM, 4 h with 2-C14 acetate)","decrease of the incorporation of acetate, % of the control (normal human adipocytes [1]; OX100 at 20 μM, 4 h with 2-C14 acetate)","decrease of the incorporation of acetate into lipids, % of the control (normal human adipocytes [2]; OX100 at 10 μM)","decrease of the incorporation of acetate into lipids, % of the control (normal human adipocytes [2]; OX100 at 20 μM)","decrease of the incorporation of acetate into lipids, % of the control (normal human adipocytes [2]; OX100 at 100 μM)",inhibitory activity on lipid synthesis (in words) (normal human adipocytes [2]; human adipocytes in culture),inhibition of the incorporation of acetate (inhibition/control) (normal human adipocytes [1]; [3]),inhibition of the incorporation of acetate (inhibition/control) (normal human adipocytes [2]; [3])
"CCCCCCCCCCCC1=NC(C)(C)CO1 [OX100, 2-undecyl-4,4-dimethyl-1,3-oxazoline]",capable of inhibiting lipogenesis,25%,31%,35%,38%,39%,significant inhibitory activity,–,–
"C/C=C/C/C=C/CCC(=O)[C@H]1O[C@H]1C(N)=O [ceruline, reference compound]",–,–,–,–,–,–,–,95%,75%
